From US12109303B2, “Orally dissolving antimicrobial film compositions and methods of their use” (ISHA Therapeutics LLC, priority 2022, dated 2024)
Converted amounts (≈) assume the structure as drawn. Where two headings read alike, the source gives them in different places.

Experiments:
[1] = Solubility in MiliQ water, quantified by HPLC; format: physicochemical; conditions: thermodynamic from solid, 0.5 mL MiliQ water, room temperature, 6 hours shaking, read-out: Solubility: average concentration of amphotericin B
Candida albicans [2] = assay: Growth inhibition assay with resazurin colorimetric readout (MIC48h); format: cell-based; conditions: RPMI 1640, 30° C., 48±2 hours, unmodified drug in DMSO, film in aqueous media
Source text: (§1) Tis Example provides a description of antifungal efficacy testing wherein minimum inhibitor concentration (MIC) of the active pharmaceutical ingredient amphotericin B in the orally dissolvable films disclosed herein compared to that of unmodified amphotericin B. The test organism utilized in this experiment was Candida albicans.
Three to five colonies of a single Candida albicans strain were selected from stock YPD agar (agar comprising yeast extract, peptone, and dextrose; also referred to as YEPD agar) plates and suspended in Roswell Park Memorial Institute (RPMI) 1640 medium. The process was repeated to form a number of suspensions of Candida albicans. The Candida albicans suspensions were then each diluted to achieve an initial inoculum with an Abs600 of 0.010.
Test compositions of unmodified amphotericin B in DMSO and orally dissolvable films of amphotericin B in aqueous media were added, followed by serial dilution of the RPMI media.
A growth inhibition assay was performed in triplicate and results determined using a resazurin colorimetric assay. All plated compositions were incubated at 30° C. for 48±2 hours. […] After incubation, 20 μL of resazurin dye (0.02% w/v) was added to each well and observed for a change in dye color to determine cell viability.

Candida albicans [3] = assay: Resazurin microtiter assay (REMA) MIC; format: cell-based
Protocol: as §1, with “This” for “Tis”, “organisms” for “organism”, “were Candida tropicalis and” for “was”
(§2) A resazurin microtiter assay (REMA) assay was performed using orally dissolvable films prepared according to the process described in Example 3 and unmodified amphotericin B. Samples were run in triplicate as Sets 1-3 for each test material against each pathogen.
(§3) Images of the microtiter plates used to conduct this experiment are shown in FIG. 5, illustrating the results of MIC assay. […] Results of the orally dissolvable film (“ODF (A)”) and unmodified amphotericin B (“AmpB (B)”) against Candida tropicalis and Candida albicans are shown in the microtiter plates on the left and right, respectively. The first row of each microtiter plate (top) contains a positive control (“P.C.”). The second row of each microtiter plate contains a negative control (“N.C.”).

Candida tropicalis = assay: Resazurin microtiter assay (REMA) MIC; format: cell-based
Protocol: as §1, with “This” for “Tis”, “organisms” for “organism”, “were Candida tropicalis and” for “was”
as §2, §3

[4] = limited solubility and permeability; cited from earlier work
[5] = read-out: Minimum Inhibitory Concentration, Avg.
[6] = read-out: Minimum Inhibitory Concentration, Set 1
[7] = read-out: Minimum Inhibitory Concentration, Set 2
[8] = read-out: Minimum Inhibitory Concentration, Set 3

C[C@@H]1[C@H](O)[C@@H](C)/C=C/C=C/C=C/C=C/C=C/C=C/C=C/[C@H](O[C@@H]2O[C@H](C)[C@@H](O)[C@H](N)[C@@H]2O)C[C@@H]2O[C@](O)(C[C@@H](O)C[C@@H](O)[C@H](O)CC[C@@H](O)C[C@@H](O)CC(=O)O[C@H]1C)C[C@H](O)[C@H]2C(=O)O [AmpB, (1R,3S,5R,6R,9R,11R,15S,16R,17R,18S,19E,21E, 23E, 25E, 27E,29E,31E,33R,35S,36R,37S)-33-[(2R,3S,4S,5S,6R)-4-amino-3,5-di hydroxy-6-methyloxan-2-yl] oxy-1,3,5,6,9,11,17,37-octahydroxy-15,16,18-trimethyl-13-oxo-14,39-dioxabicyclo[33.3.1]nonatriaconta-19,21,23, 25, 27,29,31-heptaene-36-carboxylic acid]
solubility at 6 h [1]: 630 µg/mL (≈ 682 µM) | MIC (Candida albicans [2]): 1.25 µM (≈ 1.16 µg/mL) | MIC (Candida albicans [3]; read-out: Average MIC): 1.1 µg/mL (≈ 1.19 µM) | MIC (Candida albicans [3]; [5]): 1.1 µg/mL (≈ 1.19 µM) | MIC (Candida albicans [3]; [6]): 1.1 µg/mL (≈ 1.19 µM) | MIC (Candida albicans [3]; [7]): 1.1 µg/mL (≈ 1.19 µM) | MIC (Candida albicans [3]; [8]): 1.1 µg/mL (≈ 1.19 µM) | MIC (Candida tropicalis; read-out: Average MIC): 1.1 µg/mL (≈ 1.19 µM) | MIC (Candida tropicalis; [5]): 1.1 µg/mL (≈ 1.19 µM) | MIC (Candida tropicalis; [6]): 1.1 µg/mL (≈ 1.19 µM) | MIC (Candida tropicalis; [7]): 1.1 µg/mL (≈ 1.19 µM) | MIC (Candida tropicalis; [8]): 1.1 µg/mL (≈ 1.19 µM) | Biopharmaceutics Classification System (BCS) class [4]: class IV
